Measured values: patent US6686458B2, “Synthetic molecules that specifically react with target sequences” (The Regents of the University of California, priority 1997, dated 2004)

Tests used:
[1] = system: target sequence (SEQ ID NO. 1); assay: Fluorescence (quantum yield, excitation and emission maxima) of target sequence/biarsenical molecule complex; type: physicochemical
Procedure: Formation of target sequence/biarsenical molecule (III) complex. Biarsenical molecule (III) (3 μl of 1 mM solution in DMSO) was added to 100 μl of 25 μM target sequence (SEQ. ID NO. 1) in 25 mM phosphate, pH 7.4, 100 mM KCl, 1 mM mercaptoethanesulfonate. After 1.5 hours, the reaction mixture (at room temperature) was injected onto a Dionex IonPac NS1 reverse phase HPLC column, gradient 20% to 46% acetonitrile (0.1% TFA) from 3 to 17 minutes. The complex eluted at 14.7 minutes (Free target sequence elutes at 12.6 minutes.) Mass spectrum analysis indicated a molecular weight of 2414.99 Da and the calculated molecular weight for the 1:1 complex was 2415.33 Da.
Quantum yield of target sequence/biarsenical molecule(III) complex. Solutions of fluorescein in 0.1 N NaOH and of target sequence/biarsenical molecule(III) complex in 25 mM phosphate, pH 7.4 and 100 mM KCl were adjusted to equal absorbances (0.0388) at 499 nm. The ratio of the integrated emission (excitation at 499 nm) of target sequence/biarsenical molecule(III) complex relative to fluorescein was multiplied by 0.9, the quantum yield of fluorescein, giving a quantum yield 0.44 for the target sequence/biarsenical molecule (III) complex.
(§1) This complex has a fluorescence quantum yield of 0.44 with excitation maximum at 508 nm and emission maximum at 528 nm (FIG. 4). The complex was of sufficient stability to remain intact in the presence of up to 100 equivalents of 2,3 dimercapto-1-propanol (BAL). Incubations with BAL were done at room temperature for 15 minutes.
Formation of a complex with target sequence and the dichloro-derivative of the biarsenical molecule (III). Dichloro-derivative of the biarsenical molecule (III) (5 μl of 675 μm solution in DMSO was added to 100 μl of 25 μM target sequence (SEQ ID NO. 1) in 25 mM phosphate, pH 7.4, 100 mM KCl 1 mM mercaptoethanesulfonate. After 1.5 hours, the reaction mixture was injected onto a Dionex IonPac SN1 reverse phase HPLC column, gradient 20% to 46% acetonitrile (0.1% TFA) from 3 to 17 minutes. The complex eluted in two overlapping peaks of the same molecular weight at 16.1 and 16.4 minutes. (Free peptide elutes at 12.6 minutes.) Mass spectrum analysis indicated a molecular weight of 2484.80 Da compared to the calculated molecular weight of the 1:1 complex was 2484.22 Da.

[2] = molecular target: T1, cyan GFP-target sequence (SEQ ID NO. 4) fusion in HeLa cells (Aequorea victoria, UniProt P42212, F64L/M153T/N146I/N212K/S65T/V163A/Y66W); assay: Measurement of FRET in HeLa cells expressing cyan GFP-target sequence fusion; type: cell-based
T1 construct: expressed in transfected cells; host or cells: HeLa cells, pcDNA3 vector
Excerpt: Expression of Cyan GFP-target sequence fusion in HeLa cells. Using standard molecular biology techniques, the target sequence (SEQ ID NO. 4) (with the tryptophan in SEQ ID NO. 1 replaced by an alanine) was attached to cyan fluorescent protein (CFP). CFP is the Green Fluorescent Protein (GFP) of Aequorea victoria with the following additional mutations: F64L, S65T, Y66W, N146I, M153T, V163A, N212K. Miyawaki A., et al. Nature 388:882-7 (1997). Fusion of the target sequence to the C-terminus of cyan GFP was accomplished using a PCR primer. The PCR primer had the following oligonucleotide sequence 5′-CGGCAATTCTTAGGCCCTGGCGCAGCACTCCCTGCAGCAGGCCTCCCTGGCGGCGGCCTCGGCCTTGTACAGCTCGTCCATGCCC-3′ (SEQ ID NO. 2) encoding for the expression of the target sequence. It was inserted into the pcDNA3 vector (Invitrogen, Carlsbad, Calif.) using HindIII and EcoRl restriction sites. After amplification in DH5 bacteria, it was transfected (at 37° C.) into HeLa cells using the Lipofectin system from GibcoBRL.
Measurement of FRET in HeLa cells. Three days after transfection, a concentration of 1.0 μM biarsenical molecule(III) and 10.0 μM ethanedithiol was applied to the transfected cells. Fluorescence changes were observed using a 440DF20 filter (Omega Optical, Brattleboro, Vt.) and a 4% transmittance neutral density filter for excitation and 480DF30 and 635DF50 filters for emission.
HeLa cells expressing the fusion protein were contacted with biarsenical molecule (III) on a fluorescence microscope stage. […] Upon addition of 1.0 μM biarsenical molecule (III) mixed with 10 μM EDT to inhibit background staining, the intensity of fluorescence at 480 nm decreased as energy was transferred from the CFP to the biarsenical molecule (III) which had reacted with the target sequence. There was a corresponding increase in fluorescence in the 635 nm channel due to biarsenical molecule (III)/target sequence emission. Upon removal of the biarsenical molecule (III) solution, there was little change.

[3] = system: target sequence (SEQ ID NO. 1); assay: Stability of biarsenical molecule (III)/target sequence complex to 2,3 dimercapto-1-propanol (BAL); type: physicochemical; details: room temperature, 15 minutes; for effect of BAL on complex: 100 nM complex
Procedure: as §1

[4] = Fluorescence of the free biarsenical molecule bonded to EDT; type: physicochemical; details: before reaction with target sequence
calmodulin+cys4 = molecular target: T2, calmodulin+cys4 (Xenopus laevis, UniProt P0DP33, A11C/A2H/E12C/E7C/E8C); assay: Labeling of calmodulin+cys4 in transfected HeLa cells (fluorescence microscopy); type: cell-based
T2 construct: expressed in transfected cells; host or cells: HeLa cells, pcDNA3 vector
Excerpt: Four cysteines were introduced into the N-terminal α-helix of xenopus calmodulin as shown below:
The mutated calmodulin is referred to as calmodulin+cys4. The substitutions were generated by using as a PCR primer of the following oligonucleotide sequence 5′-CGCGGATCCGCCACCATGCATGACCAACTGACATGCTGCCAGATTTGCTGCTTCAAAGAAGCCTTCTCATTATTC-3′ (SEQ ID NO. 3) encoding for the expression of these substitutions. The nucleic acid sequence encoding the cysteine-substituted calmodulin was inserted into pcDNA3 vector (Invitrogen, Carlsbad, Calif.) using the BamHI and EcoRI restriction sites. After amplification in DH5 bacteria, the vector was transfected (at 37° C.) into HeLa cells using the Lipofectin system from GibcoBRL.
Three days after transfection, the cells were treated with 1 μM biarsenical molecule (III) and 10.0 μM EDT for one hour. […] These lightly stained cells may have expressed the calmodulin+cys4 polypeptide, but at lower levels than the bright cells. […] Removal of the 1.4 neutral density filter was required to see details of the staining of the untransfected cells which appeared to be mitochondrial.

[5] = 1.0 μM biarsenical molecule (III) with 10 μM EDT, excitation 440 nm, transfected HeLa cells

SMILES	emission maximum ([1]; complex with target sequence) [nm]	excitation maximum ([1]; complex with target sequence) [nm]	red shift ([1]; dichloro-derivative compared with biarsenical molecule (III)) [nm]	fluorescence in the 635 nm channel (complex emission) [2, 5]	intensity of fluorescence at 480 nm (CFP emission) [2, 5]	removal of biarsenical molecule from target sequence in cells (reversibility) ([2]; cells treated with 1 mM EDT)	fluorescence of untransfected cells relative to cells expressing the CFP-target sequence fusion ([2]; excitation 480 nm, signal at 535 nm, after subtraction of CFP signal)	effect of BAL on complex ([3]; 1 μM BAL)	effect of BAL on complex ([3]; 10 μM BAL)	effect of BAL on complex ([3]; 100 μM BAL)	BAL at which complex remains intact [3]	red shift of fluorescent signal relative to fluorescein ([1]; complex with target sequence)	quantum yield ([1]; complex with target sequence, 25 mM phosphate, pH 7.4, 100 mM KCl, excitation at 499 nm, relative to fluorescein)	fluorescence of free molecule [4]	fluorescence of free molecule ([4]; listed as biarsenical molecule of formula (III))	fluorescence of transfected cells (calmodulin+cys4; 1 μM biarsenical molecule (III) and 10.0 μM EDT for one hour, HeLa cells transfected with calmodulin+cys4, 480 nm excitation, 535 nm emission)	fluorescence of untransfected cells (calmodulin+cys4; same concentrations of biarsenical molecule (III) and EDT, untransfected HeLa cells)
O=C1OC2(c3ccccc31)c1cc(Cl)c(O)c([As]3SCCS3)c1Oc1c2cc(Cl)c(O)c1[As]1SCCS1 [2′,7′-dichloro-4′,5′-bis(2-arsa-1,3-dithiolan-2-yl)fluorescein]	538	518	10	–	–	–	–	–	–	–	–	–	–	–	–	–	–
O=C1OC2(c3ccccc31)c1ccc(O)c([As]3SCCS3)c1Oc1c2ccc(O)c1[As]1SCCS1 [biarsenical molecule (III), 4′,5′-bis(2-arsa-1,3-dithiolan-2-yl)fluorescein]	528	508	–	increase	decreased	fast but not complete	about 10%	barely affected	barely affected	significant reduction in fluorescence	up to 100 equivalents	about 20 nm	0.44	nonfluorescent	essentially completely nonfluorescent	bright fluorescence	only very light fluorescence
